The target in one assay is T1, G551D-CFTR (Homo sapiens, UniProt P13569, G551D).
T1 construct: expressed in transfected cells; host or cells: T-REx HEK293, also transduced with halide-sensitive YFP
Kind of assay: YFP quenching copotentiation assay in HEK-G551D-CFTR cells (acute treatment). Format: cell-based. The following applies: HEK293 cells, 10 min incubation. An excerpt: The human CFTR expressing HEK cell pools with the mutations described below were generated by integrase-mediated homologous recombination of the CFTR sequence into the T-REx HEK293 background (Thermo Fisher Scientific). This expression system allows the tetracycline-inducible expression of genes of interest from one defined insertion site. Parental T-REx-HEK293 cells were cultivated in growth medium: Dulbecco’s modified Eagle’s medium + GlutaMAX-I (#31966, Life Technologies), 10% dialyzed FBS (Gibco, #26400), penicillin (100 U/ml), streptomycin (100 μg/ml), hygromycin B (0.1 mg/ml; Life Technologies), blasticidin (5 μg/ml; Invitrogen, #R210-01), and 0.1 mM nonessential amino acid solution (Invitrogen, #11140-035). Recombinant T-REx-HEK-CFTR cells were generated by lipofectamine transfection (Life Technologies) of plasmids containing mutated versions of CFTR (RefSeq NM_000492) and then cultivated in selection medium [growth medium containing Geneticin (1 mg/ml) (Invitrogen, #10131-027) instead of hygromycin]. The plasmid constructs were synthetized by GENEART (Thermo Fisher Scientific) and designed with the WT CFTR intron 5 to 6 (880 nucleotides) to prevent leaky expression issues during the cloning process in bacteria. […]

The next assay has as its system CFTR mRNA. Kind of assay: CFTR mRNA quantification in CFBE cells. In kind it is cell-based, human. To be noted: 24 hours, 2000 nM. The protocol: CFBE-F508del-CFTR cells were seeded at 70,000 cells per well in a FNC-coated 48-well plate and incubated for 24 hours with 2000 nM of indicated correctors or DMSO vehicle diluted in growth medium deprived of FBS but supplemented with 1% HSA. CFBE-WT-CFTR cells were treated with DMSO vehicle accordingly. Then, cells were washed twice with PBS^+ and lysed in RLT buffer (QIAGEN) for 10 min on ice. Lysates were fully homogenized with QIAshredder (#79656, QIAGEN), and total RNA was extracted with an RNeasy Mini kit (#74106, QIAGEN) following the manufacturer’s instruction. At the end, a deoxyribonuclease treatment was performed with a DNA-free kit (Invitrogen, AM1906) following the manufacturer’s instruction. A reverse transcription (150 ng of total RNA per sample) with random hexamers was performed with the high-capacity cDNA Reverse Transcription Kit (#4368814, Thermo Fisher Scientific) for 2 hours at 37°C. Three microliters of cDNA was mixed with 10 μl of TaqMan Fast Universal PCR (polymerase chain reaction) Master Mix (2×) No AmpErase UNG (4367848, Life Technologies) containing the probe of interest (1:20), and a quantitative PCR was run [20″ at 95°C; 3″ at 95°C to 30″ at 60°C (40 cycles)] on a 7500 Applied Biosystems device. […] Reference gene-normalized CFTR mRNA expression was calculated using ΔΔCt method with CFTR expression in vehicle-treated CFBE-F508del cells set to 1.

T1 sequence (P13569 whole entry G551D): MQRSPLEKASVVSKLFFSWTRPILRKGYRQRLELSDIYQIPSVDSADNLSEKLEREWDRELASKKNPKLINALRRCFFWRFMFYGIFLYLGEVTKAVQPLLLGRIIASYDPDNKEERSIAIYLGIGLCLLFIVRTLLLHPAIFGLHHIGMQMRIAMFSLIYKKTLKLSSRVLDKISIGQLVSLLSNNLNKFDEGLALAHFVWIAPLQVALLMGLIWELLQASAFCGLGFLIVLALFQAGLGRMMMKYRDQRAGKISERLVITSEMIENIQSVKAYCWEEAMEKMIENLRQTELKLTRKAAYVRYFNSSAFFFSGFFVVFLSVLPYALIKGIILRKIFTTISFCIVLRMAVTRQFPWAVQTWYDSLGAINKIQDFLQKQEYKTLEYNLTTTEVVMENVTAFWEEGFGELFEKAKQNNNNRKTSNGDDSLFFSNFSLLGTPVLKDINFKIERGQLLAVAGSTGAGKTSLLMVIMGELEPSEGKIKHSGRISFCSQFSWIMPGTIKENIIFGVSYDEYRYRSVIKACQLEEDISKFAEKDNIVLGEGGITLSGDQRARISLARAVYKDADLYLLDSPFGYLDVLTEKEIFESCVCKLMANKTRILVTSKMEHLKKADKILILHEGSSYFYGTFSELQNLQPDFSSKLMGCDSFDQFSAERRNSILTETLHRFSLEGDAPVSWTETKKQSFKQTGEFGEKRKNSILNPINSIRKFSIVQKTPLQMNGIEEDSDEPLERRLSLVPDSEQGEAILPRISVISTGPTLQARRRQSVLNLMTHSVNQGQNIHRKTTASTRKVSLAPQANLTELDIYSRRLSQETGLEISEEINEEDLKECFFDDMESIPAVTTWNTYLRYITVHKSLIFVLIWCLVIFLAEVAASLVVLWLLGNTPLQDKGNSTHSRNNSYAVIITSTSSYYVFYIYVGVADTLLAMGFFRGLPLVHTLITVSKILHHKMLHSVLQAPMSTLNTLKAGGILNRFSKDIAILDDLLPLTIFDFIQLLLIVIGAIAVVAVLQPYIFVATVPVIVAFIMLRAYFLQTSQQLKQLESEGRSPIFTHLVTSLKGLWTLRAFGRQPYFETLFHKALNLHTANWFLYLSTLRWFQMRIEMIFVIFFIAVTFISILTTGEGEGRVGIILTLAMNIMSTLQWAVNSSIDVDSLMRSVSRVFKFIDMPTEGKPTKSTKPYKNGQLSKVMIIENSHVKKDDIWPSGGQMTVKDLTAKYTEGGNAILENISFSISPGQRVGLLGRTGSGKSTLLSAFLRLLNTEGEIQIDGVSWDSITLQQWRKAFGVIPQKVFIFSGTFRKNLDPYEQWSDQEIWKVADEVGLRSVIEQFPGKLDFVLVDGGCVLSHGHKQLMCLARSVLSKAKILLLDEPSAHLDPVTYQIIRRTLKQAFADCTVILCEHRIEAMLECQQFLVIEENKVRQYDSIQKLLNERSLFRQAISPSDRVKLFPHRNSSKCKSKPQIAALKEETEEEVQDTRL

On to `Cc1nn(C)cc1S(=O)(=O)NC(=O)c1ccc(-n2ccc(OCC(C)(C)C(F)(F)F)n2)nc1N1C[C@@H](C)CC1(C)C` [ELX, elexacaftor], for which the “acute effect on IVA activity at G551D-CFTR” value at G551D-CFTR is “copotentiation of IVA activity”. In the assay with CFTR mRNA, the “effect on CFTR mRNA levels” value is reported as “neither macrocycles nor ELX/TEZ affected these levels”.

Consider `COc1cc(CCNC(=O)C2CC(=O)N(C)C(CC(C)C)C(=O)N3CCCCC3C(=O)NC(Cc3ccccc3)COc3ccc4ncc(F)cc4c3C(=O)N2)on1` (stereo not shown) [IDOR-3], for which the “acute effect on IVA activity at G551D-CFTR” value on G551D-CFTR was “copotentiation of IVA activity”.

As to `CC(C)(CO)c1cc2cc(NC(=O)C3(c4ccc5c(c4)OC(F)(F)O5)CC3)c(F)cc2n1C[C@@H](O)CO` [TEZ, tezacaftor], the “effect on CFTR mRNA levels” value in the assay on CFTR mRNA is “neither macrocycles nor ELX/TEZ affected these levels”.

Values taken from PMC11801377, “A uniquely efficacious type of CFTR corrector with complementary mode of action” (Science Advances, 2024).
